Experimental data from patent US8445501B2, “Substituted 7-carboxamido-pyrrolo[3,2-d]pyrimidines” (Takeda GmbH, priority 2008, dated 2013).

Target: T1, human PDE5 (Homo sapiens, UniProt O76074)
T1 construct: from tissue; host or cells: platelets from fresh blood of human donors (lysate, 10,000 g supernatant)
Test: Inhibition of the type 5 phosphodiesterase (PDE5) activity, modified SPA test with platelet lysate
Assay type: biochemical
Settings: PDE5 from human platelet lysate, 0.5 μM cGMP
Outline: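 SPA-based cGMP hydrolysis, [3H]cGMP tracer in 0.5 μM cGMP, by sonicated human platelet lysate; motapizone (1 μM) and a PDE2 inhibitor (10 nM) block other PDEs. Reaction 15 min at 37 °C after 5 min preincubation, quenched with beads containing IBMX. IC50 from concentration-effect curves.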

SMILES | IC50 [nM]
COc1cc(-c2ncnc3c(C(=O)NC4CCN(C(C)=O)CC4)c[nH]c23)c(OCC2CC2)cc1F [Example 99, 4-(2-Cyclopropylmethoxy-4-fluoro-5-methoxy-phenyl)-5H-pyrrolo[3,2-d]pyrimidine-7-carboxylic acid (1-acetyl-piperidin-4-yl)-amide] | 0.178
COCC(=O)N1CCC(NC(=O)c2c[nH]c3c(-c4cc(C)ccc4OCC4CC4)ncnc23)CC1 [Example 124, 4-(2-Cyclopropylmethoxy-5-methyl-phenyl)-5H-pyrrolo[3,2-d]pyrimidine-7-carboxylic acid [1-(2-methoxy-acetyl)piperidin-4-yl]-amide] | 2.19
COc1cc(OCC2CC2)c(-c2ncnc3c(C(=O)N[C@@H]4CCCN(C(=O)[C@H](C)O)C4)c[nH]c23)cc1F [Example 240, 4-(2-Cyclopropylmethoxy-5-fluoro-4-methoxy-phenyl)-5H-pyrrolo[3,2-d]pyrimidine-7-carboxylic acid [(R)-1-((S)-2-hydroxy-propanoyl)piperidin-3-yl]-amide] | 0.501
CCOC(=O)N[C@H]1CC[C@@H](NC(=O)c2c[nH]c3c(-c4ccc(OC)cc4OCC4CC4)ncnc23)CC1 [Example 58, cis-(4-{[4-(2-Cyclopropylmethoxy-4-methoxy-phenyl)-5H-pyrrolo[3,2-d]pyrimidine-7-carbonyl]-amino}-cyclohexyl)-carbamic acid ethyl ester] | 0.339
CC(=O)N1CCC(NC(=O)c2c[nH]c3c(-c4cc(F)c(O)cc4OCC4CC4)ncnc23)CC1 [Example 277, 4-(2-Cyclopropylmethoxy-5-fluoro-4-hydroxy-phenyl)-5H-pyrrolo[3,2-d]pyrimidine-7-carboxylic acid (1-acetyl-piperidin-4-yl)-amide] | 93.3
COCCOc1cc(OC)ccc1-c1ncnc2c(C(=O)N[C@H]3CC[C@H](NC(=O)C4CC4)CC3)c[nH]c12 [Example 156, trans-4-[4-Methoxy-2-(2-methoxy-ethoxy)-phenyl]-5H-pyrrolo[3,2-d]pyrimidine-7-carboxylic acid [4-(cyclopropanecarbonyl-amino)cyclohexyl]-amide] | 6.61
O=C(NCC1CCCN(C(=O)CO)C1)c1c[nH]c2c(-c3c(OCC4CC4)ccc4c3OCO4)ncnc12 (stereo not shown) [Example 189, 4-(5-Cyclopropylmethoxy-benzo[1,3]dioxol-4-yl)-5H-pyrrolo[3,2-d]pyrimidine-7-carboxylic acid [1-(2-hydroxy-acetyl)piperidin-3-ylmethyl]-amide] | 0.389
O=C(N[C@H]1CCN(C(=O)C2CC2)C1)c1c[nH]c2c(-c3c(OCC4CC4)ccc4c3OCO4)ncnc12 [Example 20, 4-(5-Cyclopropylmethoxy-benzo[1,3]dioxol-4-yl)-5H-pyrrolo[3,2-d]pyrimidine-7-carboxylic acid [(S)-1-(1-cyclopropyl-methanoyl)-pyrrolidin-3-yl]amide] | 0.537
CC(=O)N1CCC(NC(=O)c2c[nH]c3c(-c4c(OCC5CC5)ccc5c4OCO5)ncnc23)CC1 [Example 11, 4-(5-Cyclopropylmethoxy-benzo[1,3]dioxol-4-yl)-5H-pyrrolo[3,2-d]pyrimidine-7-carboxylic acid (1-acetyl-piperidin-4-yl)-amide] | 0.145
C[C@H](O)C(=O)N[C@H]1CC[C@H](NC(=O)c2c[nH]c3c(-c4ccc(F)cc4OCC4CC4)ncnc23)CC1 [Example 218, trans-4-(2-Cyclopropylmethoxy-4-fluoro-phenyl)-5H-pyrrolo[3,2-d]pyrimidine-7-carboxylic acid [4-((S)-2-hydroxy-propionylamino)-cyclohexyl]-amide] | 2.51
COCC(=O)N[C@H]1CC[C@H](NC(=O)c2c[nH]c3c(-c4ccc(OC)cc4OCC4CC4)ncnc23)CC1 [Example 53, trans-4-(2-Cyclopropylmethoxy-4-methoxy-phenyl)-5H-pyrrolo[3,2-d]pyrimidine-7-carboxylic acid [4-(2-methoxy-acetylamino)-cyclohexyl]-amide] | 0.372
CCC(=O)N[C@H]1CC[C@H](NC(=O)c2c[nH]c3c(-c4cc(F)ccc4OCC4CC4)ncnc23)CC1 [Example 88, trans-4-(2-Cyclopropylmethoxy-5-fluoro-phenyl)-5H-pyrrolo[3,2-d]pyrimidine-7-carboxylic acid (4-propionylamino-cyclohexyl)-amide] | 1.66
O=C(CO)N[C@H]1CC[C@H](NC(=O)c2c[nH]c3c(-c4ccc(F)cc4OCC4CC4)ncnc23)CC1 [Example 217, trans-4-(2-Cyclopropylmethoxy-4-fluoro-phenyl)-5H-pyrrolo[3,2-d]pyrimidine-7-carboxylic acid [4-(2-hydroxy-acetylamino)-cyclohexyl]-amide] | 2.24
O=C(N[C@H]1CCN(C(=O)CO)C1)c1c[nH]c2c(-c3c(OCC4CC4)ccc4c3OCO4)ncnc12 [Example 183, 4-(5-Cyclopropylmethoxy-benzo[1,3]dioxol-4-yl)-5H-pyrrolo[3,2-d]pyrimidine-7-carboxylic acid [(S)-1-(2-hydroxy-ethanoyl)-pyrrolidin-3-yl]amide] | 1.86
COCCOc1cc(OC)ccc1-c1ncnc2c(C(=O)N[C@H]3CC[C@H](NC(=O)[C@H](C)O)CC3)c[nH]c12 [Example 256, trans-4-[4-Methoxy-2-(2-methoxy-ethoxy)-phenyl]-5H-pyrrolo[3,2-d]pyrimidine-7-carboxylic acid [4-((S)-2-hydroxy-propionylamino)-cyclohexyl]-amide] | 12
O=C(N[C@H]1CC[C@@H](NC(=O)C2(O)CC2)CC1)c1c[nH]c2c(-c3c(OCC4CC4)ccc4c3OCO4)ncnc12 [Example 178, cis-4-(5-Cyclopropylmethoxy-benzo[1,3]dioxol-4-yl)-5H-pyrrolo[3,2-d]pyrimidine-7-carboxylic acid {4-[(1-hydroxy-cyclopropanecarbonyl)-amino]-cyclohexyl}-amide] | 0.229
COCC(=O)N1CCOC(CNC(=O)c2c[nH]c3c(-c4c(OCC5CC5)ccc5c4OCO5)ncnc23)C1 (stereo not shown) [Example 37, 4-(5-Cyclopropylmethoxy-benzo[1,3]dioxol-4-yl)-5H-pyrrolo[3,2-d]pyrimidine-7-carboxylic acid [4-(2-methoxy-acetyl)morpholin-2-ylmethyl]-amide] | 0.912
COCCNC(=O)[C@H]1CC[C@H](NC(=O)c2c[nH]c3c(-c4cc(F)ccc4OCC4CC4)ncnc23)CC1 [Example 274, trans-4-(2-Cyclopropylmethoxy-5-fluoro-phenyl)-5H-pyrrolo[3,2-d]pyrimidine-7-carboxylic acid [4-(2-methoxy-ethylcarbamoyl)-cyclohexyl]-amide] | 5.25

The remaining lines, values ahead:

IC50 [nM] | SMILES
7.76 | COCCOc1ccc2c(c1-c1ncnc3c(C(=O)N[C@H]4CC[C@@H](NC(C)=O)CC4)c[nH]c13)OCO2 [Example 164, cis-4-[5-(2-Methoxy-ethoxy)-benzo[1,3]dioxol-4-yl]-5H-pyrrolo[3,2-d]pyrimidine-7-carboxylic acid (4-acetylamino-cyclohexyl)-amide]
0.282 | COc1ccc(-c2ncnc3c(C(=O)N[C@H]4CC[C@@H](NC(=O)C5CC5)CC4)c[nH]c23)c(OCC2CC2)c1 [Example 56, cis-4-(2-Cyclopropylmethoxy-4-methoxy-phenyl)-5H-pyrrolo[3,2-d]pyrimidine-7-carboxylic acid [4-(cyclopropanecarbonyl-amino)cyclohexyl]-amide]
2.51 | COc1cc(OCC2CC2)c(-c2ncnc3c(C(=O)N[C@H]4CCCN(C(=O)[C@H](C)O)C4)c[nH]c23)cc1F [Example 239, 4-(2-cyclopropylmethoxy-5-fluoro-4-methoxy-phenyl)-5H-pyrrolo[3,2-d]pyrimidine-7-carboxylic acid [(S)-1-((S)-2-hydroxy-propanoyl)piperidin-3-yl]-amide]
0.275 | CCC(=O)N1CCCC(CNC(=O)c2c[nH]c3c(-c4c(OCC5CC5)ccc5c4OCO5)ncnc23)C1 (stereo not shown) [Example 29, 4-(5-Cyclopropylmethoxy-benzo[1,3]dioxol-4-yl)-5H-pyrrolo[3,2-d]pyrimidine-7-carboxylic acid (1-propionyl-piperidin-3-ylmethyl)-amide]
0.2 | COc1cc(OCC2CC2)c(-c2ncnc3c(C(=O)N[C@@H]4CCCN(C(C)=O)C4)c[nH]c23)cc1F [Example 113, 4-(2-Cyclopropylmethoxy-5-fluoro-4-methoxy-phenyl)-5H-pyrrolo[3,2-d]pyrimidine-7-carboxylic acid ((R)-1-acetyl-piperidin-3-yl)-amide]
0.245 | C[C@H](O)C(=O)N[C@H]1CC[C@@H](NC(=O)c2c[nH]c3c(-c4c(OCC5CC5)ccc5c4OCO5)ncnc23)CC1 [Example 175]
0.794 | CC(=O)c1cc(-c2ncnc3c(C(=O)NC4CCN(C(C)=O)CC4)c[nH]c23)c(OCC2CC2)cc1C [Example 268, 4-(5-Acetyl-2-cyclopropylmethoxy-4-methyl-phenyl)-5H-pyrrolo[3,2-d]pyrimidine-7-carboxylic acid (1-acetyl-piperidin-4-yl)-amide]
0.55 | CCOC(=O)N1CCC(NC(=O)c2c[nH]c3c(-c4cc(OC)ccc4OCC4CC4)ncnc23)CC1 [Example 74, 4-{[4-(2-Cyclopropylmethoxy-5-methoxy-phenyl)-5H-pyrrolo[3,2-d]pyrimidine-7-carbonyl]-amino}-piperidine-1-carboxylic acid ethyl ester]
0.295 | CCOC(=O)N1CCC(NC(=O)c2c[nH]c3c(-c4c(OCC5CCC5)ccc5c4OCO5)ncnc23)CC1 [Example 132, 4-({1-[4-(5-Cyclobutylmethoxy-benzo[1,3]dioxol-4-yl)-5H-pyrrolo[3,2-d]pyrimidin-7-yl]-methanoyl}-amino)-piperidine-1-carboxylic acid ethyl ester]
0.447 | O=CN1CCC(CNC(=O)c2c[nH]c3c(-c4c(OCC5CC5)ccc5c4OCO5)ncnc23)CC1 [Example 23, 4-(5-Cyclopropylmethoxy-benzo[1,3]dioxol-4-yl)-5H-pyrrolo[3,2-d]pyrimidine-7-carboxylic acid (1-formyl-piperidin-4-ylmethyl)-amide]
